Test results published in patent US12214092B2, “Systems and methods for treating biological fluids” (Cerus Corporation, priority 2017, dated 2025).

What was measured:
[1] = Residual amotosalen after second illumination (two-wavelength treatment); format: physicochemical; settings: 15 μM amotosalen, ~3 J/cm^2 each
Protocol: Additionally, any two or more wavelengths of narrow bandwidth light are evaluated in combination, such as for example, photochemical treatment of a biological fluid using amotosalen and ultraviolet light of a first peak wavelength and ultraviolet light of a second peak wavelength, sequentially or concurrently. More specifically, in one example pathogen inactivation of E. coli (Gram negative) and S. epidermidis (Gram positive) bacteria was evaluated using amotosalen and the device with LEDs of wavelengths described in Example 8. […] The spiked plasma units were divided into control (no amotosalen+UV light) and treatment (with amotosalen) conditions, with amotosalen used at 15 μM concentration. The units were aliquoted into six-well plates (5 mL/well) for illumination. Pre-illumination samples were taken and control bacterial titers determined using standard colony forming unit assay. […] Data for pre-illumination titers, post-first illumination titer, post-second illumination titer, and post-treatment (after second illumination) residual amotosalen (S-59) are shown in the following Tables 40-41.

[2] = S-59 photoconversion in E. coli-spiked plasma, HPLC; format: physicochemical
Protocol: Bacterial titer results pre- and post-UVA treatment are shown in the following Table 4, along with the levels of bacterial inactivation obtained (log reduction). Additionally, the efficiency of photoconversion of amotosalen (S-59) was also determined and shown as percent remaining S-59 after each indicated treatment condition. LOQ represents the limit of quantification. Bacterial titers were analyzed pre- and post-UVA treatment to determine bacterial inactivation levels, which are shown as log reduction in the following Table 5. Additionally, S-59 photoconversion was also determined by HPLC and shown as both absolute concentration and percent remaining after each indicated treatment condition.

[3] = Residual post-illumination amotosalen by LED wavelength in bacteria-spiked plasma, HPLC; settings: E. coli plasma; for Pre-UV S-59: pre-illumination; for Post-UV S-59: ~3 J/cm^2
[4] = 340 nm, 220 mL plasma, 15 μM, ~6.4 J/cm^2
[5] = 340 nm, 350 mL plasma, 15 μM, ~6.4 J/cm^2
[6] = INT-100, 220 mL plasma, 15 μM, ~6.4 J/cm^2
[7] = INT-100, 350 mL plasma, 15 μM, ~6.4 J/cm^2

Cc1oc2c(C)c3oc(=O)cc(C)c3cc2c1COCCN [S-59, 3-(2-aminoethoxymethyl)-2,5,9-trimethylfuro[3,2-g]chromen-7-one]
S-59 ([1]; E. coli plasma, UV 1 265 nm then UV 2 325 nm): 4.76 µM
S-59 ([1]; E. coli plasma, UV 1 265 nm then UV 2 340 nm): 3.89 µM
S-59 ([1]; E. coli plasma, UV 1 265 nm then UV 2 365 nm): 8.07 µM
S-59 ([1]; E. coli plasma, UV 1 280 nm then UV 2 325 nm): 4.44 µM
S-59 ([1]; E. coli plasma, UV 1 280 nm then UV 2 340 nm): 3.62 µM
S-59 ([1]; E. coli plasma, UV 1 280 nm then UV 2 365 nm): 7.96 µM
S-59 ([1]; E. coli plasma, UV 1 325 nm then UV 2 265 nm): 4.88 µM
S-59 ([1]; E. coli plasma, UV 1 325 nm then UV 2 280 nm): 4.66 µM
S-59 ([1]; E. coli plasma, UV 1 340 nm then UV 2 265 nm): 4.43 µM
S-59 ([1]; E. coli plasma, UV 1 340 nm then UV 2 280 nm): 4.46 µM
S-59 ([1]; E. coli plasma, UV 1 365 nm then UV 2 265 nm): 8.13 µM
S-59 ([1]; E. coli plasma, UV 1 365 nm then UV 2 280 nm): 8.00 µM
S-59 ([1]; S. epidermidis plasma, Light 1 265 nm then Light 2 325 nm): 4.82 µM
S-59 ([1]; S. epidermidis plasma, Light 1 265 nm then Light 2 340 nm): 3.93 µM
S-59 ([1]; S. epidermidis plasma, Light 1 265 nm then Light 2 365 nm): 8.17 µM
S-59 ([1]; S. epidermidis plasma, Light 1 280 nm then Light 2 325 nm): 4.50 µM
S-59 ([1]; S. epidermidis plasma, Light 1 280 nm then Light 2 340 nm): 3.77 µM
S-59 ([1]; S. epidermidis plasma, Light 1 280 nm then Light 2 365 nm): 8.01 µM
S-59 ([1]; S. epidermidis plasma, Light 1 325 nm then Light 2 265 nm): 4.92 µM
S-59 ([1]; S. epidermidis plasma, Light 1 325 nm then Light 2 280 nm): 4.63 µM
S-59 ([1]; S. epidermidis plasma, Light 1 340 nm then Light 2 265 nm): 4.47 µM
S-59 ([1]; S. epidermidis plasma, Light 1 340 nm then Light 2 280 nm): 4.46 µM
S-59 ([1]; S. epidermidis plasma, Light 1 365 nm then Light 2 265 nm): 8.39 µM
S-59 ([1]; S. epidermidis plasma, Light 1 365 nm then Light 2 280 nm): 8.07 µM
% S-59 remaining ([2]; 340 nm, 1.5 μM, ~3 J/cm^2): 9.0%
% S-59 remaining ([2]; 340 nm, 1.5 μM, ~6 J/cm^2): <LOQ
% S-59 remaining ([2]; 340 nm, 1.5 μM, ~9 J/cm^2): <LOQ
% S-59 remaining ([2]; 340 nm, 15 μM, ~3 J/cm^2): 13.5%
% S-59 remaining ([2]; 340 nm, 15 μM, ~6 J/cm^2): 2.5%
% S-59 remaining ([2]; 340 nm, 15 μM, ~9 J/cm^2): <LOQ
% S-59 remaining ([2]; 340 nm, 150 μM, ~3 J/cm^2): 39.9%
% S-59 remaining [2, 4]: 3.0%
S-59 Remaining [2, 4]: 0.5 µM
% S-59 remaining [2, 5]: 8.0%
S-59 Remaining [2, 5]: 1.1 µM
% S-59 remaining ([2]; INT-100, 15 μM, ~3 J/cm^2): 40.5%
% S-59 remaining ([2]; INT-100, 150 μM, ~3 J/cm^2): 63.0%
% S-59 remaining [2, 6]: 26.0%
S-59 Remaining [2, 6]: 4.0 µM
% S-59 remaining [2, 7]: 37.0%
S-59 Remaining [2, 7]: 5.5 µM
Pre-UV S-59 ([3]; 15 μM arm, 265 nm arm): 16.0 µM
Post-UV S-59 ([3]; 15 μM arm, 265 nm): 12.7 µM
Pre-UV S-59 ([3]; 15 μM arm, 280 nm arm): 16.2 µM
Post-UV S-59 ([3]; 15 μM arm, 280 nm): 12.6 µM
Pre-UV S-59 ([3]; 15 μM arm, 310 nm arm): 15.4 µM
Post-UV S-59 ([3]; 15 μM arm, 310 nm): 5.5 µM
Pre-UV S-59 ([3]; 15 μM arm, 325 nm arm): 15.8 µM
Post-UV S-59 ([3]; 15 μM arm, 325 nm): 4.0 µM
Pre-UV S-59 ([3]; 15 μM arm, 340 nm arm): 16.0 µM
Post-UV S-59 ([3]; 15 μM arm, 340 nm): 3.7 µM
Pre-UV S-59 ([3]; 15 μM arm, 365 nm arm): 16.2 µM
Post-UV S-59 ([3]; 15 μM arm, 365 nm): 8.1 µM
Pre-UV S-59 ([3]; 15 μM arm, 385 nm arm): 15.3 µM
Post-UV S-59 ([3]; 15 μM arm, 385 nm): 14.3 µM
Pre-UV S-59 ([3]; 150 μM arm, 265 nm arm): 148.9 µM
